PMC4493701, “Quantitative and qualitative analysis of the novel antitumor 1,3,4-oxadiazole derivative (GLB) and its metabolites using HPLC-UV and UPLC-QTOF-MS” (Scientific Reports, 2015)
Where two headings read alike, the source gives them in different places.

Columns and labels:
[1] = tested on: human carcinoma cell lines including uterine cervix cancer cells, pulmonary adenocarcinoma cells, and prostate cancer cells (PC-3M); parameters: method as in earlier work; details: multiple human carcinoma cell lines; cited from earlier work
[2] = Pharmacokinetic study in rats after single oral administration of GLB (HPLC-UV in plasma); format: in vivo, Sprague-Dawley rats; details: for concentration at 0.5 h / concentration at 1 h / concentration at 2 h / concentration at 4 h / concentration at 6 h / concentration at 8 h / concentration at 12 h / concentration at 24 h / concentration at 36 h / concentration at 48 h / concentration at 72 h / concentration at 96 h: oral; for concentration at 0.5 h: 0.5 h after single oral GLB 100 mg/kg; for concentration at 1 h: 1 h after single oral GLB 100 mg/kg; for concentration at 2 h: 2 h after single oral GLB 100 mg/kg; for concentration at 4 h: 4 h after single oral GLB 100 mg/kg; for concentration at 6 h: 6 h after single oral GLB 100 mg/kg; for concentration at 8 h: 8 h after single oral GLB 100 mg/kg; for concentration at 12 h: 12 h after single oral GLB 100 mg/kg; for concentration at 24 h: 24 h after single oral GLB 100 mg/kg; for concentration at 48 h: 48 h after single oral GLB 100 mg/kg; for concentration at 72 h: 72 h after single oral GLB 100 mg/kg; for concentration at 96 h: 96 h after single oral GLB 100 mg/kg; for Tmax / half-life / Cmax / AUC(0-inf) / AUC(0-t): rat plasma, single oral GLB 100 mg/kg; for AUC(0-t): read-out: AUC(0-96)
Protocol: The validated bioanalytical method was applied to the detection of GLB concentration in plasma after a single oral administration of GLB (100 mg/kg, n = 6) in rats. At 0.5 h after oral administration, the prototype drug of GLB was detected in rat plasma. The peak concentration of GLB was at 6 h (2.78 ± 0.89 μg/mL) with quantifiable at the 36 h (0.14 ± 0.18 μg/mL). At 96 h time point, low concentration of GLB was still detectable in rat plasma (Fig. 2B).
HPLC-UV analyses were performed with a DIONEX Ultimate 3000 HPLC system (Thermo Fisher Scientific, MA, USA), which included a double-ternary pump (DGP-3600SD), a temperature controlled automatic sampler (WPS-3000SL), a column temperature box (TCC-3000SD), and a ultraviolet (UV) detector (VWD-3400). The UV detection wavelength was set at 300 nm. The chromatographic separation was achieved on a reversed-phase Alltima C18 analytical column (150 mm × 4.6 mm; 5 μm), and the mobile phase was the mixture of acetonitrile and distilled water (65:35, v/v), running at the flow rate of 1.0 mL/min. The temperature of column box was kept at 25 °C. The injection volume was 20 μL. The HPLC data was processed using Chromeleon^TM 6.8 software (Thermo Fisher Scientific, MA, USA).
Sprague-Dawley rats (Male, 210 ± 20 g, 7–8 weeks) were provided by the Department of Experimental Animal, Beijing University (Beijing, China). Environmental controls for the animal room were set at 22 ± 3 °C with 50 ± 20% relative humidity. This animal study was performed in strict accordance with the recommendations in the Guide for the Care and Use of Laboratory Animals of China Association for Laboratory Animal Science. All animal care and experimental protocols were approved by the Animal Care Committee of Peking University Health Science Center. All sacrifice was performed under pentobarbitone anesthesia, and every effort was made to minimize suffering.
Rats were fasted 12 h prior to the study and were allowed access to food 4 h after oral dosing. Eighteen rats were divided randomly into six groups and rats were sampled at interval in each group. The blood samples at each time point were collected from six rats. The rats were dosed with a suspension of GLB (100 mg/kg, in 0.5% sodium carboxymethyl cellulose CMC-Na solution) and the blood samples were collected at the predose, 0.5, 1, 2, 4, 6, 8, 12, 24, 36, 48, 72 and 96 h post-dosing. The blood samples were centrifuged at 2800 rpm (1473 × g) for 20 min and the plasma was stored at −20 °C until analyzed.
The 400 μL plasma sample was transferred into a glass tube, followed by the addition of 25 μL of IS and 2 mL of extraction solvent ethyl acetate. The mixture was vortexed for 3 min to extract GLB and IS from plasma sample and then centrifuged at 2800 rpm (1473 × g) for 20 min. The upper organic phase was transferred into a glass tube. The sample was extracted twice with 2 mL of ethyl acetate for liquid-liquid extraction. The combined upper organic phases were evaporated to dryness at 37 °C under a gentle stream of nitrogen gas. The residue was reconstituted with 100 μL of methanol and was injected 20 μL into the HPLC system. In addition, in order to perform mass spectrometry analyses, the residue was reconstituted with 150 μL of methanol-water (v/v, 1:1), and then centrifuged at 14000 rpm (17968 × g) for 15 min, the upper liquid was transferred into sample vials and 10 μL was injected for UPLC-QTOF/MS analysis.
The pharmacokinetic parameters of GLB were calculated by a non-compartmental pharmacokinetic analysis method using Drug and Statistical Version 3.0 (DAS 3.0) software (the Mathematical Pharmacology Committee, Chinese Pharmacological Society, China). The maximum peak concentration of the drug in plasma (Cmax) and the time to reach the maximum concentration (Tmax) were estimated from the experimental data. The area under the plasma concentration-time curves from 0 to infinity (i.e., AUC0-∞) and from 0 to 96 h (AUC0-96) were calculated by the trapezoidal summation. […]

[3] = male, Sprague-Dawley, rat, plasma, 100 mg/kg, rat, M1/M2 relative to GLB standard curve
[4] = male, Sprague-Dawley, rat, plasma, 100 mg/kg, 36 h after single oral GLB 100 mg/kg, rat, M1/M2 relative to GLB standard curve
[5] = male, Sprague-Dawley, rat, plasma, po, 100 mg/kg, n = 6, read-out: Tmax
[6] = male, Sprague-Dawley, n = 6, M1/M2 relative concentrations from GLB standard curve

Structure (SMILES)	concentration at 0.5 h [2, 3] [ng/mL]	concentration at 1 h [2, 3] [ng/mL]	concentration at 2 h [2, 3] [ng/mL]	concentration at 4 h [2, 3] [ng/mL]	concentration at 6 h [2, 3] [ng/mL]	concentration at 8 h [2, 3] [ng/mL]	concentration at 12 h [2, 3] [ng/mL]	concentration at 24 h [2, 3] [ng/mL]	concentration at 36 h [2, 4] [ng/mL]	concentration at 48 h [2, 3] [ng/mL]	concentration at 72 h [2, 3] [ng/mL]	concentration at 96 h [2, 3] [ng/mL]	Tmax [2, 5] [h]	half-life ([2]; male, Sprague-Dawley, n = 6) [h]	AUC(0-inf) [2, 6] [ng·h/mL]	AUC(0-t) [2, 6] [ng·h/mL]	other results
CC(=O)N1N=C(c2ccc(Br)cc2)OC12C1OC(C)(C)OC1COC21COC(C)(C)O1 (centres unmarked) [GLB, Fructose-based 3-acetyl-2,3-dihydro-1,3,4-oxadiazole]	43 ± 151	673 ± 65	1400 ± 210	1460 ± 210	2780 ± 887	1600 ± 656	1470 ± 672	262 ± 241	139 ± 183	58 ± 63	11 ± 5	16 ± 17	6	9.24 ± 4.74	33500 ± 9050	33300 ± 9100	Effect on proliferation [1]: inhibited proliferation; Plasma concentration ([2]; 36 h after single oral GLB 100 mg/kg, rat, M1/M2 relative to GLB standard curve): 140 ± 180 ng/mL; Cmax ([2]; male, Sprague-Dawley, n = 6, text, read-out: Cmax): 2780 ± 890 ng/mL; Cmax ([2]; n = 6, M1/M2 relative concentrations from GLB standard curve): 2780 ± 890 ng/mL
CC(=O)N1N=C(c2ccc(Br)cc2)OC1(C1OC(C)(C)OC1C(=O)O)C1(O)COC(C)(C)O1 (centres unmarked) [M1]	27 ± 14	91 ± 21	242 ± 55	336 ± 59	517 ± 113	443 ± 137	390 ± 114	185 ± 182	37 ± 15	24 ± 20	15 ± 9	25 ± 11	6	11.3 ± 5.94	10000 ± 3340	9660 ± 3380	Cmax ([2]; male, Sprague-Dawley, n = 6, M1/M2 relative concentrations from GLB standard curve, read-out: Cmax): 540 ± 100 ng/mL; Tmax ([2]; n = 6): 7.33 ± 2.73 h
